# Test results published in patent US11744843B2, “Identification and treatment of T-cell epitopes of short H2A oncohistones” (Fred Hutchinson Cancer Research Center, priority 2020, dated 2023).
# Entries after “also recorded” stand apart in the source; their conditions may differ.
# Columns and labels:
# Type in all cases: cell-based
# [1] = test system: diffuse large B-cell lymphoma cell line (A3/Kawakami); assay: Western blot of cleaved PARP, γ-H2A.X and tubulin after drug treatment, diffuse large B-cell lymphoma cell line A3/Kawakami; conditions: compared with etoposide and doxorubicin
# Description: FIGS. 13A to 13B. […] FIG. 13A illustrates a Western blot gel as described in FIG. 11A. FIG. 13B illustrates graphs of the relative band intensity taken from the Western blot as described in FIG. 11B.
# (§1) In FIGS. 12 and 13, similar experiments were performed to compare the cytotoxicity of aclarubicin to etoposide and doxorubicin in additional lymphoma cell lines. In FIG. 12, the compounds cytotoxicity and side effects were assessed in the Hodgkin's lymphoma cell line, L-428. In FIG. 13, the compounds cytotoxicity and side effects were assessed in the diffuse large B-cell lymphoma cell line, A3/KAW.
# [2] = test system: Hodgkin's lymphoma cell line (L-428); assay: Western blot of cleaved PARP, γ-H2A.X and tubulin after drug treatment, Hodgkin's lymphoma cell line L-428
# Description: FIGS. 12A to 12B. […] FIG. 12A illustrates a Western blot gel as described in FIG. 11A. FIG. 12B illustrates graphs of the relative band intensity taken from the Western blot as described in FIG. 11B.
# as §1
# lymphoma cells = assay: Western blot of cleaved PARP and γ-H2A.X, summary over the three lymphoma cell lines (FIGS. 11-13)
# Description: (§2) FIG. 11A is a Western blot gel assessing expression of the markers listed on the y-axis. The specific cancer therapeutics and the amounts used are indicated by the numbers along the x-axis and the corresponding figure legend. In this Example, aclarubicin's cytotoxicity on lymphoma cells was assessed by determining the amount of cleaved PARP, which was assessed as band intensity (FIG. 11B) from the Western blot (FIG. 11A). In this Example, aclarubicin's corresponding DNA damage was assessed by measuring the amount of γ-H2A.X, which was assessed as band intensity (FIG. 11B) from the Western blot (FIG. 11A).
# as §1
# [3] = test system: Hodgkin's lymphoma cell line (L-1236); assay: Western blot of cleaved PARP, γ-H2A.X and tubulin after drug treatment, Hodgkin's lymphoma cell line L-1236
# Description: FIGS. 11A to 11B. […] FIG. 11A illustrates a Western blot gel depicting marker expression following a 72 hour treatment with aclarubicin, etoposide, and doxorubicin. The markers are listed on the y-axis. The specific agents and amounts were added according to the labeling on the x-axis, which is fully described in the figure legend. FIG. 11B illustrates graphs of the relative band intensity taken from the Western blot and plotted according to drug concentration. The band intensity of PARP was used as an indicator of agent cytotoxicity. The band intensity of γ-H2A.X was used as an indicator of DNA damage (side effect). The band intensity of tubulin was used as a control.
# as §2
# [4] = L-428, 72 hour treatment, compared with etoposide and doxorubicin
# [5] = L-1236, 72 hour treatment, 100 nM to 5.0 μM, compared with etoposide and doxorubicin
compound,measurement,setting,value
CC[C@@]1(O)C[C@H](O[C@H]2C[C@H](N(C)C)[C@H](O[C@H]3C[C@H](O)[C@H](O[C@H]4CCC(=O)[C@H](C)O4)[C@H](C)O3)[C@H](C)O2)c2c(cc3c(c2O)C(=O)c2c(O)cccc2C3=O)[C@H]1C(=O)OC [aclarubicin],cytotoxicity and side effects (relative band intensities),[1]; A3/KAW,best combination of anti-neoplastic activity while having fewer harmful side effects
same,"DNA damage (band intensity of γ-H2A.X, side effect)","[1]; A3/Kawakami, 72 hour treatment",minimizing DNA damage
same,apoptosis / cytotoxicity (band intensity of PARP),"[1]; A3/Kawakami, 72 hour treatment",maximizes apoptosis
same,"DNA damage (band intensity of γ-H2A.X, side effect)",[2]; [4],minimizing DNA damage
same,apoptosis / cytotoxicity (band intensity of PARP),[2]; [4],maximizes apoptosis
same,cytotoxicity and side effects (relative band intensities),"[2]; L-428, compared with etoposide and doxorubicin",best combination of anti-neoplastic activity while having fewer harmful side effects
same,DNA damage as measured by γ-H2A.X; side effect profile,"lymphoma cells; FIGS. 11-13, compared with doxorubicin or etoposide",much less DNA damage; also recorded: much more favorable side effect profile than doxorubicin
same,killing of lymphoma cells as measured by cleaved PARP; anti-neoplastic activity,"lymphoma cells; FIGS. 11-13, three lymphoma cell lines",efficiently kills lymphoma cells; also recorded: more anti-neoplastic activity than etoposide
same,"DNA damage (band intensity of γ-H2A.X, side effect)",[3]; [5],minimizing DNA damage
same,apoptosis / cytotoxicity (band intensity of PARP),[3]; [5],maximizes apoptosis
same,"relative band intensity of PARP/tubulin, PARP/γ-H2A.X and γ-H2A.X/Tubulin","[3]; L-1236, compared with etoposide and doxorubicin",best combination of anti-neoplastic activity while having fewer harmful side effects
